Results from the supplement of paper PMC11451515.

Legend:
Details in all cases: 48 h
NOMO1 [1] = assay: cell viability relative to DMSO control; higher = less cytotoxic
How it was run: (§1)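 Three leukemia lines were tested: NOMO1 and SEM at 500 cells/well and P12-Ichikawa at 1000 cells/well. Each was adapted for at least four passages in each medium and seeded in 5 μl in 1536-well plates, and library compounds in DMSO were pin-dosed from 47 μM to 0.79 nM in 11 threefold steps. After 48 h at 37°C, CellTiter-Glo One luminescence was read. Viability is a percentage relative to DMSO wells on each plate, with cell-free wells as background.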

P12-Ichikawa [2] = assay: as above
How it was run: as §1

SEM cells [3] = assay: as above
How it was run: as §1

NOMO1 [4] = assay: AUC of viability dose-response curve (% viability x log10 dose units); higher = less sensitive
How it was run: (§2)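 Leukemia cells adapted to each medium (500 or 1000 cells/well, 1536-well plates) were exposed to library compounds in DMSO for 48 h at 37°C at 11 threefold doses, 47 μM to 0.79 nM. Luminescence by CellTiter-Glo One was normalised per plate to DMSO and cell-free wells, then fitted with a four-parameter log-logistic curve on log10 dose. Curves above full viability were scaled and quality-control failures removed before area under the curve was integrated by trapezoidal rule.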

P12-Ichikawa [5] = assay: as above
How it was run: as §2

SEM cells [6] = assay: as above
How it was run: as §2

OC[C@H]1O[C@@H]2[C@@H](OC\3=N\C(=N)\C=C/[N@@]23)[C@@H]1O
cell viability [%]
Details	NOMO1 [1]	P12-Ichikawa [2]	SEM cells [3]
HPLM + 10% dialyzed FBS, 0.000781 µM	103	113	94
HPLM + 10% dialyzed FBS, 0.00234 µM	129	119	107
HPLM + 10% dialyzed FBS, 0.00702 µM	125	107	93.1
HPLM + 10% dialyzed FBS, 0.0211 µM	114	105	97.8
HPLM + 10% dialyzed FBS, 0.0632 µM	130	95.6	84.4
HPLM + 10% dialyzed FBS, 0.19 µM	129	44.3	47.9
HPLM + 10% dialyzed FBS, 0.569 µM	109	24.7	34.6
HPLM + 10% dialyzed FBS, 1.71 µM	62.6	13.5	28.1
HPLM + 10% dialyzed FBS, 5.12 µM	30.4	10.7	21.9
HPLM + 10% dialyzed FBS, 15.4 µM	19.8	7.98	16.1
HPLM + 10% dialyzed FBS, 46.1 µM	6.81	8.28	14.5
RPMI 5 mM glucose + 10% FBS, 0.000781 µM	119	116	105
RPMI 5 mM glucose + 10% FBS, 0.00234 µM	122	118	116
RPMI 5 mM glucose + 10% FBS, 0.00702 µM	112	118	102
RPMI 5 mM glucose + 10% FBS, 0.0211 µM	111	105	117
RPMI 5 mM glucose + 10% FBS, 0.0632 µM	119	93.2	87
RPMI 5 mM glucose + 10% FBS, 0.19 µM	125	47.3	46.9
RPMI 5 mM glucose + 10% FBS, 0.569 µM	130	22.5	41.9
RPMI 5 mM glucose + 10% FBS, 1.71 µM	103	12.1	23.3
RPMI 5 mM glucose + 10% FBS, 5.12 µM	33.7	8.81	16
RPMI 5 mM glucose + 10% FBS, 15.4 µM	22	7.28	13.8
RPMI 5 mM glucose + 10% FBS, 46.1 µM	8.44	6.52	13.5
RPMI 5 mM glucose + 10% dialyzed FBS, 0.000781 µM	116	109	85.3
RPMI 5 mM glucose + 10% dialyzed FBS, 0.00234 µM	122	122	86.2
RPMI 5 mM glucose + 10% dialyzed FBS, 0.00702 µM	120	114	99.8
RPMI 5 mM glucose + 10% dialyzed FBS, 0.0211 µM	106	117	81.1
RPMI 5 mM glucose + 10% dialyzed FBS, 0.0632 µM	118	92.4	59.8
RPMI 5 mM glucose + 10% dialyzed FBS, 0.19 µM	125	53.2	37.8
RPMI 5 mM glucose + 10% dialyzed FBS, 0.569 µM	90.5	28.6	22.4
RPMI 5 mM glucose + 10% dialyzed FBS, 1.71 µM	67.1	17	14.8
RPMI 5 mM glucose + 10% dialyzed FBS, 5.12 µM	23.3	11.6	13
RPMI 5 mM glucose + 10% dialyzed FBS, 15.4 µM	16.8	9.01	10.7
RPMI 5 mM glucose + 10% dialyzed FBS, 46.1 µM	9.9	7.41	8.17

AUC of viability dose-response curve
Details	NOMO1 [4]	P12-Ichikawa [5]	SEM cells [6]
HPLM + 10% dialyzed FBS	348	248	277
RPMI 5 mM glucose + 10% FBS	374	241	264
RPMI 5 mM glucose + 10% dialyzed FBS	344	251	223

O=C(/C=C/c1ccc(O)cc1)c1ccc(O)cc1O
cell viability [%]
Details	NOMO1 [1]	P12-Ichikawa [2]	SEM cells [3]
HPLM + 10% dialyzed FBS, 0.000781 µM	138	108	113
HPLM + 10% dialyzed FBS, 0.00234 µM	116	98.4	112
HPLM + 10% dialyzed FBS, 0.00702 µM	117	95	131
HPLM + 10% dialyzed FBS, 0.0211 µM	110	109	108
HPLM + 10% dialyzed FBS, 0.0632 µM	104	106	141
HPLM + 10% dialyzed FBS, 0.19 µM	126	104	131
HPLM + 10% dialyzed FBS, 0.569 µM	128	103	120
HPLM + 10% dialyzed FBS, 1.71 µM	97.2	95.9	109
HPLM + 10% dialyzed FBS, 5.12 µM	106	99.6	124
HPLM + 10% dialyzed FBS, 15.4 µM	82.4	87.8	81.2
HPLM + 10% dialyzed FBS, 46.1 µM	46.8	43.1	26.6
RPMI 5 mM glucose + 10% FBS, 0.000781 µM	112	108	118
RPMI 5 mM glucose + 10% FBS, 0.00234 µM	105	103	122
RPMI 5 mM glucose + 10% FBS, 0.00702 µM	101	110	134
RPMI 5 mM glucose + 10% FBS, 0.0211 µM	109	105	125
RPMI 5 mM glucose + 10% FBS, 0.0632 µM	113	111	124
RPMI 5 mM glucose + 10% FBS, 0.19 µM	110	108	133
RPMI 5 mM glucose + 10% FBS, 0.569 µM	119	98.3	106
RPMI 5 mM glucose + 10% FBS, 1.71 µM	98.8	98.5	116
RPMI 5 mM glucose + 10% FBS, 5.12 µM	103	107	111
RPMI 5 mM glucose + 10% FBS, 15.4 µM	96.1	65.9	79.6
RPMI 5 mM glucose + 10% FBS, 46.1 µM	86.6	11.7	17
RPMI 5 mM glucose + 10% dialyzed FBS, 0.000781 µM	120	105	98
RPMI 5 mM glucose + 10% dialyzed FBS, 0.00234 µM	103	101	94.4
RPMI 5 mM glucose + 10% dialyzed FBS, 0.00702 µM	109	109	118
RPMI 5 mM glucose + 10% dialyzed FBS, 0.0211 µM	106	106	91.9
RPMI 5 mM glucose + 10% dialyzed FBS, 0.0632 µM	107	119	121
RPMI 5 mM glucose + 10% dialyzed FBS, 0.19 µM	110	113	105
RPMI 5 mM glucose + 10% dialyzed FBS, 0.569 µM	110	104	100
RPMI 5 mM glucose + 10% dialyzed FBS, 1.71 µM	88.4	97.3	91
RPMI 5 mM glucose + 10% dialyzed FBS, 5.12 µM	102	95.5	81.8
RPMI 5 mM glucose + 10% dialyzed FBS, 15.4 µM	109	41.8	59.5
RPMI 5 mM glucose + 10% dialyzed FBS, 46.1 µM	70.2	9.51	9.38

AUC of viability dose-response curve
Details	NOMO1 [4]	P12-Ichikawa [5]	SEM cells [6]
HPLM + 10% dialyzed FBS	437	454	443
RPMI 5 mM glucose + 10% FBS	460	438	433
RPMI 5 mM glucose + 10% dialyzed FBS	452	420	417
